Test results: patent US9375005B2, “5-halogenopyrazole indanyl carboxamides” (BAYER CROPSCIENCE AG, priority 2012, dated 2016)
Marks after values point to notes of the source that are not given here.

How the values were obtained:
Puccinia recondita = assay: In vivo preventive test on Puccinia recondita (brown rust on wheat); settings: dose 500 ppm; wheat plants sprayed 24 h before contamination; grading 12 days after contamination
Protocol: Plants, used as controls, are treated with the mixture of acetone/tween/DMSO/water not containing the active material. After 24 hours, the plants are contaminated by spraying the leaves with an aqueous suspension of Puccinia recondita spores (100 000 spores per ml). […] Grading (% of efficacy) is carried out 12 days after the contamination, in comparison with the control plants.

[1] = Measurement of log P values by HPLC on reversed phase columns (EEC directive 79/831 Annex V.A8); assay type: physicochemical
Uromyces appendiculatus = assay: In vivo preventive test on Uromyces appendiculatus (bean rust); settings: dose 500 ppm; bean plants sprayed 24 h before contamination; grading 11 days after contamination
Protocol: Bean plants (“Saxa” variety), sown in starter cups on a 50/50 peat soil-pozzolana substrate and grown at 24° C., are treated at the 2-leaf stage (9 cm height) by spraying with the active ingredient prepared as described above. Plants, used as controls, are treated with the mixture of acetone/tween/DMSO/water not containing the active material. After 24 hours, the plants are contaminated by spraying the leaves with an aqueous suspension of Uromyces appendiculatus spores (150 000 spores per ml). […] Grading (% of efficacy) is carried out 11 days after the contamination, in comparison with the control plants.

[2] = method [a]: LC-MS at pH 2.7, 0.1% formic acid in water / acetonitrile, gradient 10% to 95% acetonitrile
[3] = method [b]: LC-MS at pH 7.8, 0.001 molar ammonium hydrogen carbonate in water, gradient 10% to 95% acetonitrile

| logP [1, 2] | logP ([1]; method marked [a]) | Structure (SMILES) | also measured |
| --- | --- | --- | --- |
| 2.9[a] |  | CC(C)C1Cc2cccc(N)c2C1C (mixture of isomers) [III-a-24] |  |
| 2.64[a] |  | CC(C)CC1CCc2c(N)cccc21 (racemic) [III-a-22] |  |
| 1.93[a] |  | CC1CC2(CC2)c2cccc(N)c21 (racemic) [III-a-25] |  |
| 1.88[a] |  | CCC1(C)CCc2c(N)cccc21 (racemic) [III-a-26] |  |
| 2.78[a] |  | CCCON=C1CC(C)c2c(N)cccc21.Cl (racemic) [III-a-29] |  |
| 2.26[a] |  | CCON=C1CC(C)c2c(N)cccc21.Cl (racemic) [III-a-30] |  |
| 1.76[a] |  | CON=C1CC(C)c2c(N)cccc21.Cl (racemic) [III-a-31] |  |
| 2.4[a] |  | CC(C)(C)C1CCc2c(N)cccc21 (racemic) [III-a-35] |  |
| 2.47[a] |  | CCC1Cc2c(N)cccc2C1(C)C (racemic) [III-a-40] |  |
| 2.63[a] |  | CCC1(CC)Cc2c(N)cccc2C1C (racemic) [III-a-42] |  |
| 2.86[a] |  | CC1CC2(CCCC2)c2cccc(N)c21 (racemic) [III-a-43] |  |
| 5.14[a] |  | CCCON=C1CCc2c(Br)cccc21 (single isomer, unassigned) [III-b-7] |  |
| 4.49[a] |  | CCON=C1CCc2c(Br)cccc21 (single isomer, unassigned) [III-b-10] |  |
| 5.56[a] |  | CCCON=C1CCc2c(Br)cccc21 (single isomer, unassigned) [III-b-22] |  |
| 4.9[a] |  | CCON=C1CCc2c(Br)cccc21 (single isomer, unassigned) [III-b-23] |  |
| 2.73[a] |  | CC1CC(C(C)C)c2cccc(N)c21 (centres unmarked) [III-a-18] |  |
| 2.86[a] |  | CC1CC(C(C)C)c2cccc(N)c21 (centres unmarked) [III-a-19] |  |
| 3.85[a]; |  | CC1CC(C)(C)c2c(Br)ccc(N)c21 (centres unmarked) [III-a-20] | logP [1, 3]: 3.95[b] |

| logP [1, 2] | logP ([1]; method marked [a]) | Structure (SMILES) | also measured |
| --- | --- | --- | --- |
| 2.54[a] |  | Nc1cccc2c1CC(Cc1ccccc1)C2 (centres unmarked) [III-a-21] |  |
| 1.76[a] |  | CC1CC(C)c2c(N)cccc21 (centres unmarked) [III-a-23] |  |
| 2.94[a] |  | Nc1cccc2c1CC(C1CCCC1)C2 (centres unmarked) [III-a-28] |  |
| 2.08[a] |  | CON=C1c2cccc(N)c2CC1(C)C.Cl [III-a-32] |  |
| 1.44[a] |  | CC1Cc2c(N)cccc2C1C (centres unmarked) [III-a-33] |  |
| 2.28[a] |  | CC1c2c(N)cccc2C(C)(C)C1C (centres unmarked) [III-a-34] |  |
| 3.83[a] |  | CC1CC(CC(C)(C)C)c2cccc(N)c21 (centres unmarked) [III-a-36] |  |
| 3.42[a] |  | CC(C)CC1CC(C)c2c(N)cccc21 (centres unmarked) [III-a-39] |  |
| 3.35[a] |  | CC1CC2(CCCCC2)c2cccc(N)c21 (centres unmarked) [III-a-44] |  |
| 6.7[a] |  | CC(C)C1Cc2c(Br)cccc2C1(C)C (centres unmarked) [III-b-3] |  |
| 4.86[a] |  | Brc1cccc2c1CCC21CC1 [III-b-4] |  |
| 5.71[a] |  | CCCCON=C1CCc2c(Br)cccc21 [III-b-8] |  |
| 5.31[a] |  | CC1CC(C(C)C)c2cccc(Br)c21 (centres unmarked) [III-b-13] |  |
| 6.57[a] |  | CC(C)CC1CCc2c(Br)cccc21 (centres unmarked) [III-b-16] |  |
| 5.28[a] |  | CC1CC2(CC2)c2cccc(Br)c21 (centres unmarked) [III-b-20] |  |
| 4.23[a] |  | CON=C1CCc2c(Br)cccc21 [III-b-24] |  |
| 6.28[a] |  | CCC1Cc2c(Br)cccc2C1(C)C (centres unmarked) [III-b-29] |  |

Continued, compound first:

| Structure (SMILES) | logP [1, 2] | logP ([1]; method marked [a]) | also measured |
| --- | --- | --- | --- |
| CON=C1c2cccc(NC(=O)c3c(C(F)F)nn(C)c3Cl)c2CC1(C)C (mixture of isomers) [Example 59] |  |  | Eff. % (Puccinia recondita): 86% |
| CCC1Cc2cccc(N)c2C1 (racemic) [III-a-16] | 1.76[a] |  |  |
| CC1CC2(CC2(Cl)Cl)c2cccc(NC(=O)c3c(C(F)F)nn(C)c3F)c21 (centres unmarked) [Example 1] |  | 3.68[a] | Eff. % (Uromyces appendiculatus): 100% |
| CC1Cc2cccc(NC(=O)c3c(C(F)F)nn(C)c3Cl)c2C1 (centres unmarked) [Example 8] |  | 3.67[a] | Eff. % (Uromyces appendiculatus): 100%; Eff. % (Puccinia recondita): 94% |
| CC1Cc2c(NC(=O)c3c(C(F)F)nn(C)c3Br)cccc2C1(C)C (centres unmarked) [Example 13] |  | 4.16[a] | Eff. % (Uromyces appendiculatus): 79%; Eff. % (Puccinia recondita): 75% |
| CC1CC(C)(C)c2c(C3CC3)ccc(NC(=O)c3c(C(F)F)nn(C)c3Cl)c21 (centres unmarked) [Example 16] |  | 4.57[a]; | Eff. % (Uromyces appendiculatus): 95%; Eff. % (Puccinia recondita): 94%; logP ([1]; method marked [b]): 4.57[b] |
| Cc1ccc(NC(=O)c2c(C(F)F)nn(C)c2Cl)c2c1C(C)(C)CC2C (centres unmarked) [Example 18] |  | 4.27[a]; | Eff. % (Uromyces appendiculatus): 76%; Eff. % (Puccinia recondita): 78%; logP ([1]; method marked [b]): 4.2[b] |
| CON=C1CCc2c(NC(=O)c3c(C(F)F)nn(C)c3Cl)cccc21 [Example 25] |  | 2.82[a] |  |
| CCON=C1CCc2c(NC(=O)c3c(C(F)F)nn(C)c3F)cccc21 [Example 27] |  | 3.06[a] | Eff. % (Puccinia recondita): 72% |
| CON=C1CCc2c(NC(=O)c3c(C(F)F)nn(C)c3F)cccc21 [Example 29] |  | 2.59[a] | Eff. % (Puccinia recondita): 98% |
| CC1CC(C)(C)c2c(Br)ccc(NC(=O)c3c(C(F)F)nn(C)c3F)c21 (centres unmarked) [Example 38] |  | 4.45[a]; | Eff. % (Puccinia recondita): 71%; logP ([1]; method marked [b]): 4.35[b] |
| CC1CC(C)c2c(NC(=O)c3c(C(F)F)nn(C)c3Cl)cccc21 (centres unmarked) [Example 43] |  |  | Eff. % (Uromyces appendiculatus): 100%; Eff. % (Puccinia recondita): 98% |
| Cn1nc(C(F)F)c(C(=O)Nc2cccc3c2CC2CCCCC32)c1Cl (centres unmarked) [Example 54] |  | 4.54[a] | Eff. % (Uromyces appendiculatus): 100%; Eff. % (Puccinia recondita): 94% |
| CON=C1CC(C)c2c(NC(=O)c3c(C(F)F)nn(C)c3F)cccc21 (centres unmarked) [Example 58] |  | 2.75[a] | Eff. % (Uromyces appendiculatus): 95%; Eff. % (Puccinia recondita): 75% |
| CC1Cc2c(NC(=O)c3c(C(F)F)nn(C)c3Cl)cccc2C1C (centres unmarked) [Example 62] |  | 3.87[a] | Eff. % (Uromyces appendiculatus): 100%; Eff. % (Puccinia recondita): 94% |
| CC1c2c(NC(=O)c3c(C(F)F)nn(C)c3Br)cccc2C(C)(C)C1C (centres unmarked) [Example 65] |  | 4.23[a] | Eff. % (Uromyces appendiculatus): 95%; Eff. % (Puccinia recondita): 94% |
| Cn1nc(C(F)F)c(C(=O)Nc2cccc3c2CCC3C(C)(C)C)c1Cl (centres unmarked) [Example 67] |  | 4.64[a] | Eff. % (Uromyces appendiculatus): 100%; Eff. % (Puccinia recondita): 94% |
| CC(C)C1Cc2c(NC(=O)c3c(C(F)F)nn(C)c3Br)cccc2C1(C)C (centres unmarked) [Example 68] |  | 4.92[a] | Eff. % (Uromyces appendiculatus): 100%; Eff. % (Puccinia recondita): 98% |
| Cn1nc(C(F)F)c(C(=O)Nc2cccc3c2CC(C)(C)C3)c1Br [Example 71] |  | 3.87[a] | Eff. % (Uromyces appendiculatus): 99%; Eff. % (Puccinia recondita): 98% |
| CC1CC2(CC2)c2cccc(NC(=O)c3c(C(F)F)nn(C)c3Br)c21 (centres unmarked) [Example 76] |  | 3.83[a] | Eff. % (Uromyces appendiculatus): 100%; Eff. % (Puccinia recondita): 98% |
| CC1c2cccc(NC(=O)c3c(C(F)F)nn(C)c3Br)c2CC1(C)C (centres unmarked) [Example 81] |  | 4.16[a] | Eff. % (Uromyces appendiculatus): 99%; Eff. % (Puccinia recondita): 98% |
| CON=C1CC(C)c2c(NC(=O)c3c(C(F)F)nn(C)c3Cl)cccc21 (centres unmarked) [Example 88] |  | 2.98[a] | Eff. % (Uromyces appendiculatus): 100%; Eff. % (Puccinia recondita): 81% |

| Structure (SMILES) | logP [1, 2] | logP ([1]; method marked [a]) | also measured |
| --- | --- | --- | --- |
| CC(C)C1Cc2c(NC(=S)c3c(C(F)F)nn(C)c3Cl)cccc2C1(C)C (centres unmarked) [Example 94, 5-chloro-3-(difluoromethyl)-N-(2-isopropyl-1,1-dimethyl-2,3-dihydro-1H-inden-4-yl)-1-methyl-1H-pyrazole-4-carbothioamide] |  |  | Eff. % (Uromyces appendiculatus): 99%; Eff. % (Puccinia recondita): 89%; logP ([1]; pH 2.7): 4.92[a] |
| Cn1nc(C(F)F)c(C(=O)Nc2cccc3c2C(C)(C)CC3)c1F [Example 100] |  | 3.31[a] |  |
| CCC1(CC)CC(C)c2c(NC(=O)c3c(C(F)F)nn(C)c3Cl)cccc21 (centres unmarked) [Example 112] |  | 4.82[a] |  |
| CCC1(CC)CC(C)c2c(NC(=O)c3c(C(F)F)nn(C)c3F)cccc21 (centres unmarked) [Example 113] |  | 4.56[a] |  |
| CCC1(CC)CC(C)c2c(NC(=O)c3c(C(F)F)nn(C)c3Br)cccc21 (centres unmarked) [Example 114] |  | 4.82[a] |  |
| CCC1(C)CC(C)c2c(NC(=O)c3c(C(F)F)nn(C)c3Cl)cccc21 (centres unmarked) [Example 115] |  | 4.46[a] |  |
| CCC1(C)CC(C)c2c(NC(=O)c3c(C(F)F)nn(C)c3F)cccc21 (centres unmarked) [Example 116] |  | 4.16[a] |  |
| CCC1(C)CC(C)c2c(NC(=O)c3c(C(F)F)nn(C)c3Br)cccc21 (centres unmarked) [Example 117] |  | 4.44[a] |  |
| CC(C)C1Cc2cccc(N)c2C1 (centres unmarked) [III-a-2] | 2.25[a] |  |  |
| CC(C)C1Cc2c(N)cccc2C1(C)C (centres unmarked) [III-a-3] | 2.8[a] |  |  |
| Nc1cccc2c1CCC21CC1 [III-a-4] | 1.37[a] |  |  |
| CC1CC(C)(C)c2c(Cl)ccc(N)c21 (centres unmarked) [III-a-5] | 3.68[a] |  |  |
| CC1Cc2c(N)cccc2C1(C)C (centres unmarked) [III-a-6] | 1.95[a] |  |  |
| Nc1cccc2c1CC1(CCCC1)C2 [III-a-7] | 2.1[a] |  |  |
| CC1CC(C)(C)c2c(C3CC3)ccc(N)c21 (centres unmarked) [III-a-8] | 2.81[a] |  |  |
| Cc1ccc(N)c2c1C(C)(C)CC2C (centres unmarked) [III-a-9] | 2.16[a]; |  | logP [1, 3]: 3.52[b] |
| CC1CC(C)(C)c2c(I)ccc(N)c21 (centres unmarked) [III-a-10] | 4.1[a] |  |  |
| CC(C)C1Cc2c(N)cccc2C1C (centres unmarked) [III-a-11] | 2.34[a] |  |  |
| CCCON=C1CCc2c(N)cccc21.Cl [III-a-12] | 2.26[a] |  |  |
| CCCCON=C1CCc2c(N)cccc21.Cl [III-a-13] | 2.86[a] |  |  |
| CON=C1CCc2c(N)cccc21.Cl [III-a-14] | 1.26[a] |  |  |
| CCON=C1CCc2c(N)cccc21.Cl [III-a-15] | 1.75[a] |  |  |
